Experiment [1] has as its target T1, full length mouse TREX1 (Mus musculus, UniProt Q91XB0).
T1 construct: N-terminally His-Tev tagged full length mouse TREX1; made in house; host or cells: E. coli
T1 sequence (Q91XB0 1-314): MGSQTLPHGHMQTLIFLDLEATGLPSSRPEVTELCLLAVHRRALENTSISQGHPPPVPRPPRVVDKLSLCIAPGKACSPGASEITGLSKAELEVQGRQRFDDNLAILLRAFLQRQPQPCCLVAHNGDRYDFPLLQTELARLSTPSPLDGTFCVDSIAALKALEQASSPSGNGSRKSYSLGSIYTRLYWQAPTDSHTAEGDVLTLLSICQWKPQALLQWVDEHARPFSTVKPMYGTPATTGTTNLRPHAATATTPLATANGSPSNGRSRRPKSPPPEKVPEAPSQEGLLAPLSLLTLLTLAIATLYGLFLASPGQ
The experiment is described as follows: mTREX1 Biochemical Assay (fluorescence, dsDNA substrate degradation). To be noted: biochemical, read-out: mTREX1 IC50. The protocol:
(§1) Degradation of the dsDNA liberates free fluorophore to produce a fluorescent signal. Specifically, 7.5 μL of N-terminally His-Tev tagged full length mouse TREX1 (expressed in E. coli and purified in house) in reaction buffer (50 mM Tris, 150 mM NaCl, 2 mM DTT, 0.1 mg/mL BSA, 0.01% (w/v) Tween-20, 5 mM MgCl2, pH 7.4) was added to a 384-well Black ProxiPlate Plus (PerkinElmer) which already contained compound (150 nL) at varying concentrations as a 10 point dose-response in DMSO. The plate was incubated at 25° C. for 4 hours. Reactions were initiated by adding 7.5 μL of dsDNA substrate (Strand A: 5′ TEX615/GCT AGG CAG 3′; Strand B: 5′ CTG CCT AGC/IAbRQSp (Integrated DNA Technologies)) in reaction buffer. Final concentrations were 6 pM TREX1, 60 nM dsDNA substrate in reaction buffer with 1.0% DMSO (v/v). After 18 hours at 25° C., reactions were quenched by the addition of 2 μL of 500 mM EDTA.

In experiment [2] the target is T2, full length human TREX1 (Homo sapiens, UniProt Q9NSU2).
T2 construct: N-terminally His-Tev tagged full length human TREX1; made in house; host or cells: E. coli
T2 sequence (Q9NSU2 1-314): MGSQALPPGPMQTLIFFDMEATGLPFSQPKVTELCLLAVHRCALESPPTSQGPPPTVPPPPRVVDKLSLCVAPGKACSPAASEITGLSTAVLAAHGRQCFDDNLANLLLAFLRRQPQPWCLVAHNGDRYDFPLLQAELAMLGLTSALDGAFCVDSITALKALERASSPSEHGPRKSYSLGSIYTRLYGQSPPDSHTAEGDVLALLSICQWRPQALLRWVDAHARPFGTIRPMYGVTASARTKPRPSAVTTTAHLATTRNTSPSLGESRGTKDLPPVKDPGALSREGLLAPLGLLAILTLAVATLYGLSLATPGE
The experiment is described as follows: hTREX1 Biochemical Assay (fluorescence, dsDNA substrate degradation). To be noted: biochemical, read-out: hTREX1 IC50. The protocol: as §1, with “length human” for “length mouse”, “were 4” for “were 6”

As to `Cc1nn(C)cc1C(c1ccc(F)cc1C#N)C(C)c1nc(C(=O)Nc2cnoc2)c(O)c(=O)n1C` (single isomer, unassigned) [Example 56 D2E1], the IC50 – broadly, the midpoint of a concentration-inhibition curve – was more than 10 nM in experiment [1] and 1 to 10 nM in experiment [2].
For `Cn1cc(C(c2ccccc2C#N)C(c2nc(C(=O)Nc3cnoc3)c(O)c(=O)n2C)C(F)(F)F)cn1` (single isomer, unassigned) [Example 40 D1E1] the same measures were more than 10 nM and more than 10 nM.
Consider `CC(c1nc(C(=O)Nc2cnoc2)c(O)c(=O)n1C)C(c1cnn(C)c1)c1cc(C(F)(F)F)ccc1C#N` (single isomer, unassigned) [Example 29 D2E1], for which the half-maximal inhibitory concentration (IC50) in experiment [1] and in experiment [2] was more than 10 nM each time.
In the case of `COCCCn1cc(C(c2ccccc2C#N)C(C)c2nc(C(=O)Nc3cnoc3)c(O)c(=O)n2C)cn1` (single isomer, unassigned) [Example 24 D1E2], the IC50 in experiment [1] and in experiment [2] was more than 10 nM each time.
Turning to `Cc1nn(C)cc1C(c1ccc(F)cc1C#N)C(C)c1nc(C(=O)Nc2cnoc2)c(O)c(=O)n1C` (single isomer, unassigned) [Example 56 D2E2], the concentration for half-maximal inhibition (IC50) in experiment [1] and in experiment [2] was more than 10 nM each time.
Turning to `Cc1nn(C)cc1C(c1ccccc1C#N)C(c1nc(C(=O)Nc2cnoc2)c(O)c(=O)n1C)C(F)(F)F` (single isomer, unassigned) [Example 41 D1E1], the IC50 in experiment [1] and in experiment [2] was more than 10 nM each time.
Take `CCn1cc(C(c2ccccc2C#N)C(C)c2nc(C(=O)Nc3cnoc3)c(O)c(=O)n2C)c(C)n1` (single isomer, unassigned) [Example 70 D2E1]: the IC50 in experiment [1] is more than 10 nM; in experiment [2] it was 1 to 10 nM.
On the same counts, the results for `CC(c1nc(C(=O)Nc2cnoc2)c(O)c(=O)n1C)C(c1cnn(C)c1)c1cc(F)ccc1Cl` (single isomer, unassigned) [Example 61 D1E2] are more than 10 nM and more than 10 nM.
Regarding `CC(c1nc(C(=O)Nc2cnoc2)c(O)c(=O)n1C)C(c1ccccc1C#N)c1ccnn1C` (single isomer, unassigned) [Example 1 D2E1], the IC50 in experiment [1] and in experiment [2] was more than 10 nM in each case.
For `CC(c1nc(C(=O)Nc2cnoc2)c(O)c(=O)n1C)C(c1ccccc1C#N)c1nnnn1C` (single isomer, unassigned) [Example 131 D2E2], the IC50 in experiment [1] and in experiment [2] was more than 10 nM in each case.
Take `CC(c1nc(C(=O)Nc2cnoc2)c(O)c(=O)n1C)C(c1cnn(CCN2CCNCC2)c1)c1ccccc1C#N` (single isomer, unassigned) [Example 31 D2E2]: the IC50 in experiment [1] and in experiment [2] was more than 10 nM each time.
`Cc1nc(C)c(C(c2ccccc2C#N)C(C)c2nc(C(=O)Nc3cnoc3)c(O)c(=O)n2C)nc1C` (single isomer, unassigned) [Example 122 D2E2]: the IC50 in experiment [1] and in experiment [2] was more than 10 nM in each case.
As to `CC(c1nc(C(=O)Nc2cnoc2)c(O)c(=O)n1C)C(c1cn[nH]c1)c1ccccc1C#N` (single isomer, unassigned) [Example 12 D2E2], the IC50 in experiment [1] and in experiment [2] was more than 10 nM throughout.
With `CC(=O)N(C)c1nn(C)cc1C(c1ccccc1C#N)C(C)c1nc(C(=O)Nc2cnoc2)c(O)c(=O)n1C` (single isomer, unassigned) [Example 153 D1E1], the IC50 in experiment [1] and in experiment [2] was more than 10 nM throughout.
With `Cc1cnc(C(c2ccccc2Cl)C(C)c2nc(C(=O)Nc3cnoc3)c(O)c(=O)n2C)cn1` (single isomer, unassigned) [Example 116 D2E2], the IC50 in experiment [1] and in experiment [2] was more than 10 nM in each case.
`CC(c1nc(C(=O)Nc2cnoc2)c(O)c(=O)n1C)C(c1cnn(C)c1)c1c(C#N)cccc1C#N` (single isomer, unassigned) [Example 19 D2E2]: the IC50 in experiment [1] and in experiment [2] was more than 10 nM in each case.
Consider `Cc1cncc(C(c2ccccc2C#N)C(C)c2nc(C(=O)Nc3cnoc3)c(O)c(=O)n2C)n1` (single isomer, unassigned) [Example 53 D1E1], for which the IC50 in experiment [1] and in experiment [2] was more than 10 nM throughout.
For the compound `Cc1nn(C)cc1C(c1ccccc1C#N)C(C)c1nc(C(=O)Nc2cnoc2)c(O)c(=O)n1C` (single isomer, unassigned) [Example 3 D1E2], the IC50 in experiment [1] and in experiment [2] was more than 10 nM in each case.
Take `Cc1ccc(C(c2ccccc2C#N)C(C)c2nc(C(=O)Nc3cnoc3)c(O)c(=O)n2C)cn1` (single isomer, unassigned) [Example 5 D1E1]: the IC50 in experiment [1] and in experiment [2] was more than 10 nM throughout.
Consider `CC(c1nc(C(=O)Nc2cnoc2)c(O)c(=O)n1C)C(c1cnn(C)c1)c1cc(C(F)(F)F)ccc1C#N` (single isomer, unassigned) [Example 29 D1E2], for which the IC50 in experiment [1] and in experiment [2] was more than 10 nM in each case.
In the case of `Cc1nn(C)cc1C(c1cc(F)ccc1C#N)C(c1nc(C(=O)Nc2cnoc2)c(O)c(=O)n1C)C(F)(F)F` (single isomer, unassigned) [Example 42 D2E2], the IC50 in experiment [1] and in experiment [2] was more than 10 nM each time.
In the case of `CC(c1nc(C(=O)Nc2cnoc2)c(O)c(=O)n1C)C(c1ccccc1C#N)c1cn(C)nc1C#N` (single isomer, unassigned) [Example 10 D2E2], the IC50 in experiment [1] and in experiment [2] was more than 10 nM throughout.
Consider `CC(c1nc(C(=O)Nc2cnoc2)c(O)c(=O)n1C)C(c1cnn(C(F)F)c1)c1ccccc1C#N` (single isomer, unassigned) [Example 38 D1E2], for which the IC50 in experiment [1] and in experiment [2] was more than 10 nM each time.
In the case of `COCCn1cc(C(c2ccccc2C#N)C(C)c2nc(C(=O)Nc3cnoc3)c(O)c(=O)n2C)c(C)n1` (single isomer, unassigned) [Example 71 D1E2], the IC50 in experiment [1] and in experiment [2] was more than 10 nM in each case.
`Cc1nn(C)cc1C(c1ccccc1C#N)C(c1nc(C(=O)Nc2cnoc2)c(O)c(=O)n1C)C(F)(F)F` (single isomer, unassigned) [Example 41 D2E1]: the IC50 was more than 10 nM in experiment [1] and 1 to 10 nM in experiment [2].
For `CCn1cc(C(c2cc(F)c(F)cc2Cl)C(C)c2nc(C(=O)Nc3cnoc3)c(O)c(=O)n2C)cn1` (single isomer, unassigned) [Example 72 D2E1], the 50% inhibitory concentration (IC50) in experiment [1] and in experiment [2] was more than 10 nM in each case.
As for `CC(c1nc(C(=O)Nc2cnoc2)c(O)c(=O)n1C)C(c1cnn(C)c1)c1cc(C(F)(F)F)ccc1C#N` (single isomer, unassigned) [Example 29 D2E2], the 50% inhibitory concentration (IC50) in experiment [1] and in experiment [2] was more than 10 nM in each case.
Take `CC(c1nc(C(=O)Nc2cnoc2)c(O)c(=O)n1C)C(c1cn(C)cn1)c1ccccc1C#N` (single isomer, unassigned) [Example 39 D2E1]: the IC50 in experiment [1] and in experiment [2] was more than 10 nM in each case.
On to `CC(c1nc(C(=O)Nc2cnoc2)c(O)c(=O)n1C)C(c1cnn(C(F)(F)F)c1)c1ccccc1C#N` (single isomer, unassigned) [Example 151 D2E2], for which the IC50 in experiment [1] and in experiment [2] was more than 10 nM in each case.
As to `CC(c1nc(C(=O)Nc2cnoc2)c(O)c(=O)n1C)C(c1cnn(CCN2CCNCC2)c1)c1ccccc1C#N` (single isomer, unassigned) [Example 31 D1E2], the IC50 in experiment [1] and in experiment [2] was more than 10 nM each time.

Values taken from patent US20240246946A1, “MODULATORS OF TREX1” (Constellation Pharmaceuticals, Inc., priority 2021, published 2024).
